# Test results from ChEMBL document CHEMBL1201862, “PubChem BioAssay data set” (2004).
# “And” between values parts separate entries of the source, which are not always exact repeats. Equal entries are not always repeated.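 Assay format: 96-well plates, 48-hour exposure. GI50 is the concentration that inhibits growth by half.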 The source made the active and inactive calls. Cut-off read from the data, not from the text of the source: active = GI50 up to about 1.1 µM and inactive = higher.
# What was measured:
# Experiment in all cases: NCI tumour cell line growth inhibition, 48 h
# RXF 631 = tested on: RXF 631
# UACC-62 = tested on: UACC-62
# SNB-75 = tested on: SNB-75
# LXFL 529 = tested on: LXFL 529
# A498 = tested on: A498
# DU-145 = tested on: DU-145
# U-251 = tested on: U-251
# HCC 2998 = tested on: HCC 2998
# SK-MEL-28 = tested on: SK-MEL-28
# Malme-3M = tested on: Malme-3M
# HOP-18 = tested on: HOP-18
# NCI/ADR-RES = tested on: NCI/ADR-RES
# T47D = tested on: T47D
# DMS-114 = tested on: DMS-114
# XF498 = tested on: XF498
# HOP-62 = tested on: HOP-62
# BT-549 = tested on: BT-549
# M19-MEL = tested on: M19-MEL
# KM-20L2 = tested on: KM-20L2
# M14 = tested on: M14
# DMS-273 = tested on: DMS-273
# MDA-N = tested on: MDA-N
# MCF7 = tested on: MCF7
# DLD-1 = tested on: DLD-1
# SNB-19 = tested on: SNB-19
# SNB-78 = tested on: SNB-78
# UO-31 = tested on: UO-31
# SN12C = tested on: SN12C
# MDA-MB-231 = tested on: MDA-MB-231
# SF-295 = tested on: SF-295
# HCT-116 = tested on: HCT-116
# OVCAR-8 = tested on: OVCAR-8
# UACC-257 = tested on: UACC-257
# NCI-H23 = tested on: NCI-H23
# SK-MEL-5 = tested on: SK-MEL-5
# SF-539 = tested on: SF-539
# K562 = tested on: K562
# SK-OV-3 = tested on: SK-OV-3
# MOLT-4 = tested on: MOLT-4
# HL-60 = tested on: HL-60
# A549 = tested on: A549
# SF-268 = tested on: SF-268
# LOX IMVI = tested on: LOX IMVI
# NCI-H226 = tested on: NCI-H226
# HT-29 = tested on: HT-29
# SK-MEL-2 = tested on: SK-MEL-2
# RPMI-8226 = tested on: RPMI-8226
# 786-0 = tested on: 786-0
# COLO 205 = tested on: COLO 205
# KM12 = tested on: KM12
# NCI-H460 = tested on: NCI-H460
# TK-10 = tested on: TK-10
# ACHN = tested on: ACHN
# SW-620 = tested on: SW-620
# NCI-H522 = tested on: NCI-H522
# OVCAR-4 = tested on: OVCAR-4
# RXF 393 = tested on: RXF 393
# HCT-15 = tested on: HCT-15
# OVCAR-5 = tested on: OVCAR-5
# EKVX = tested on: EKVX
# SR = tested on: SR
# CAKI-1 = tested on: CAKI-1
# IGROV-1 = tested on: IGROV-1
# HOP-92 = tested on: HOP-92
# OVCAR-3 = tested on: OVCAR-3
# CCRF-CEM = tested on: CCRF-CEM
compound,measurement,setting,value
CN(C)C(=S)SSC(=S)N(C)C [THIRAM],GI50,RXF 631,42.2 µM (inactive)
same,GI50,UACC-62,3.52 µM (inactive) and 2.3 µM (inactive)
same,GI50,SNB-75,28.1 µM (inactive) and 36 µM (inactive)
same,GI50,LXFL 529,1.98 µM (inactive)
same,GI50,A498,45.8 µM (inactive) and > 60 µM (inactive)
same,GI50,DU-145,47.1 µM (inactive) and 37.7 µM (inactive)
same,GI50,U-251,14.3 µM (inactive) and 17.9 µM (inactive)
same,GI50,HCC 2998,16.7 µM (inactive) and 29.3 µM (inactive)
same,GI50,SK-MEL-28,13 µM (inactive) and 23.8 µM (inactive)
same,GI50,Malme-3M,20.2 µM (inactive) and 12.4 µM (inactive)
same,GI50,HOP-18,> 100 µM (inactive)
same,GI50,NCI/ADR-RES,17.2 µM (inactive)
same,GI50,T47D,26.2 µM (inactive) and 18.3 µM (inactive)
same,GI50,DMS-114,0.124 µM (active)
same,GI50,XF498,4.48 µM (inactive)
same,GI50,HOP-62,> 67.9 µM (inactive)
same,GI50,BT-549,17.2 µM (inactive) and 14.2 µM (inactive)
same,GI50,M19-MEL,0.581 µM (active)
same,GI50,KM-20L2,1.64 µM (inactive)
same,GI50,M14,17.3 µM (inactive) and 20.6 µM (inactive)
same,GI50,DMS-273,0.285 µM (active)
same,GI50,MDA-N,19.1 µM (inactive) and 14.1 µM (inactive)
same,GI50,MCF7,20.8 µM (inactive) and 17.7 µM (inactive)
same,GI50,DLD-1,2.59 µM (inactive)
same,GI50,SNB-19,> 57.8 µM (inactive) and 54.6 µM (inactive)
same,GI50,SNB-78,> 75.5 µM (inactive)
same,GI50,UO-31,> 46.5 µM (inactive) and 31.9 µM (inactive)
same,GI50,SN12C,36.4 µM (inactive) and 24.3 µM (inactive)
same,GI50,MDA-MB-231,16.8 µM (inactive) and 20.2 µM (inactive)
same,GI50,SF-295,21 µM (inactive) and 28.6 µM (inactive)
CCC(CO)COC(=O)/C=C/C(=O)OCC(CC)CO (centres undefined),GI50,RXF 631,> 100 µM (inactive)
same,GI50,HCT-116,> 74.3 µM (inactive)
same,GI50,OVCAR-8,> 76.2 µM (inactive)
same,GI50,UACC-62,> 72.4 µM (inactive)
same,GI50,SNB-75,73.5 µM (inactive)
same,GI50,LXFL 529,78.7 µM (inactive)
same,GI50,UACC-257,> 100 µM (inactive)
same,GI50,A498,> 100 µM (inactive)
same,GI50,NCI-H23,> 84.7 µM (inactive)
same,GI50,SK-MEL-5,> 100 µM (inactive)
same,GI50,U-251,> 100 µM (inactive)
same,GI50,SF-539,> 100 µM (inactive)
same,GI50,HCC 2998,> 100 µM (inactive)
same,GI50,SK-MEL-28,> 100 µM (inactive)
same,GI50,K562,48.6 µM (inactive)
same,GI50,SK-OV-3,> 100 µM (inactive)
same,GI50,Malme-3M,> 61 µM (inactive)
same,GI50,MOLT-4,45.1 µM (inactive)
same,GI50,HL-60,22.1 µM (inactive)
same,GI50,A549,> 100 µM (inactive)
same,GI50,SF-268,> 84.3 µM (inactive)
same,GI50,LOX IMVI,> 100 µM (inactive)
same,GI50,NCI-H226,> 100 µM (inactive)
same,GI50,HOP-18,> 100 µM (inactive)
same,GI50,HT-29,> 91 µM (inactive)
same,GI50,SK-MEL-2,> 100 µM (inactive)
same,GI50,DMS-114,> 100 µM (inactive)
same,GI50,RPMI-8226,33.3 µM (inactive)
same,GI50,XF498,> 100 µM (inactive)
same,GI50,786-0,> 100 µM (inactive)
same,GI50,HOP-62,> 100 µM (inactive)
same,GI50,COLO 205,> 100 µM (inactive)
same,GI50,KM12,> 100 µM (inactive)
same,GI50,M19-MEL,> 100 µM (inactive)
same,GI50,KM-20L2,> 100 µM (inactive)
same,GI50,NCI-H460,> 100 µM (inactive)
same,GI50,TK-10,> 100 µM (inactive)
same,GI50,M14,> 71.8 µM (inactive)
same,GI50,ACHN,> 100 µM (inactive)
same,GI50,SW-620,> 89.1 µM (inactive)
same,GI50,NCI-H522,> 61.5 µM (inactive)
same,GI50,OVCAR-4,> 100 µM (inactive)
same,GI50,DMS-273,> 100 µM (inactive)
same,GI50,RXF 393,> 65.3 µM (inactive)
same,GI50,HCT-15,> 73.3 µM
same,GI50,OVCAR-5,> 100 µM (inactive)
same,GI50,EKVX,> 55.5 µM (inactive)
same,GI50,DLD-1,> 85.9 µM (inactive)
same,GI50,SNB-19,> 100 µM (inactive)
same,GI50,SR,30.9 µM (inactive)
same,GI50,CAKI-1,> 100 µM (inactive)
same,GI50,SNB-78,> 100 µM (inactive)
same,GI50,IGROV-1,> 100 µM (inactive)
same,GI50,UO-31,> 100 µM (inactive)
same,GI50,SN12C,> 100 µM (inactive)
same,GI50,HOP-92,> 81.8 µM (inactive)
same,GI50,SF-295,> 100 µM (inactive)
same,GI50,OVCAR-3,> 62.5 µM (inactive)
same,GI50,CCRF-CEM,27.4 µM (inactive)
